# Measurements published in patent US11479534B2, “Compound and use thereof in medicine” (Changsha Hooz Bioscience And Technology Co., Ltd, priority 2018, dated 2022).
# What was measured:
# HDAC1 [1] = test: Western blot of acetylated histone H3 and total histone H3 in treated DU145 cells (HDAC targeting); assay type: cell-based; details: DU145 cells, 50, 100 and 150 μM, 24 hours, Western blot (FIG. 1)
# Protocol: (§1) Culturing a same amount of prostate cancer cell line DU145 in each well of a 6-well culture dish, allowing cell adhesion for 24 hours, and then using different doses of said compound M3 (50, 100 and 150 μM) to treat the prostate cancer cell DU145, and using said compound M1 as a control drug. After 24 hours, harvest the cells for Western blot to detect the protein levels of UHRF1, histone H3 and acetylated histone H3. […] The results of this experiment verifies that the compound M3 of the present invention specifically dual-targeting UHRF1 and HDAC molecules.
# HDAC1 [2] = target: T1, HDAC1 (Homo sapiens, UniProt Q13547); test: as above; assay type: cell-based; details: FIG. 6, M2 and M3 under the same dose
# T1 construct: endogenous in cells; host or cells: DU145
# Protocol: as §1
# DNMT1 = test: Western blot of DNMT1 protein expression in treated DU145 cells; assay type: cell-based; details: 24 hours, Western blot (FIG. 1)
# [3] = test system: prostate cancer cells DU145; test: MTS cell survival assay, DU145; assay type: cell-based; details: Homo sapiens, DU-145, DU145, 72 hours, read-out: half inhibitory dose (IC50)
# Protocol: (§2) Culturing prostate cancer cells PC3 and DU145 cells, as well as non-cancerous normal cells (5000 cells/well) in a 96-well cell culture dish, and then using different doses of said compound M3 to treat prostate cancer cells PC3 and DU145 cells and normal […] cells RWPE1 and HPrEC. After 72 hours, detecting the survival rate of the cells by MTS method, and calculate […] of said compound M3 for different cells using software.
# UHRF1 = target: T2, UHRF1 (Homo sapiens, UniProt Q96T88); test: Western blot of UHRF1 protein level in treated DU145 cells; assay type: cell-based
# T2 construct: reduces the protein level of the oncogene UHRF1 in prostate cancer cells in a dose-dependent manner; endogenous in cells; host or cells: DU145
# T2 sequence (Q96T88 1-793): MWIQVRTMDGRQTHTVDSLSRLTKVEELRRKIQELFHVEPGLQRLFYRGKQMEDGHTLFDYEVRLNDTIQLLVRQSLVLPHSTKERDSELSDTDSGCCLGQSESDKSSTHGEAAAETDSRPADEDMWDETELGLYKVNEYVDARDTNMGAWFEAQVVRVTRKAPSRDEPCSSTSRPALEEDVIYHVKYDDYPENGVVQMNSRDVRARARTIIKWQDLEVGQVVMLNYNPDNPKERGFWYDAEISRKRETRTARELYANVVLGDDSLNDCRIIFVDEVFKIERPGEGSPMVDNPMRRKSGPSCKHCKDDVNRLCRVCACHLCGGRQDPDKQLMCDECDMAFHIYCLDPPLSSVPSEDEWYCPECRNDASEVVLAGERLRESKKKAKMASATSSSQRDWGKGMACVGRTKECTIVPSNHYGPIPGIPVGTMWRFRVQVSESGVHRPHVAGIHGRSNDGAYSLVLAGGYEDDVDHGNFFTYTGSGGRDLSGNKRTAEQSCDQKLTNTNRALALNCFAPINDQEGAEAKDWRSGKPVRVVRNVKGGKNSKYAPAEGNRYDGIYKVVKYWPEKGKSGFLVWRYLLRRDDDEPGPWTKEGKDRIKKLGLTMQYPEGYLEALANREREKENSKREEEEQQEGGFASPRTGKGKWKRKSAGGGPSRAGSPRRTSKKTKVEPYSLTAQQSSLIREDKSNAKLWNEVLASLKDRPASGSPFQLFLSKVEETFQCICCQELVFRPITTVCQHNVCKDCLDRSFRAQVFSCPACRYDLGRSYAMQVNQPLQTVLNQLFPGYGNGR
# Protocol: as §1
# [4] = test system: prostate cancer DU145 cells xenograft tumor; test: Subcutaneous xenograft model of prostate cancer DU145 cells in nude mouse; assay type: in vivo; details: 100 mg/kg/day intragastrically, 5 days a week, 4 weeks; compared with control compound M1
# Protocol: Establishing a subcutaneous xenograft model of prostate cancer DU145 cells (1×106) in immunodeficient mouse by subcutaneous injection, allowing around 2-3 weeks for the xenograft to grow into a size of around 250 mm3, and then intragastrically administering the compound M3 of the present invention (100 mg/kg/day) once a day, 5 days a week with 2 days rest in between, for a total of 4 weeks of continuous treatment. Said […] and solvent DMSO are used as controls. Tumor size is measured before treatment and every 3 days after treatment begins. The size of the tumor is calculated according to the formula V=length×width 2/2.
# RWPE1 cells = test: MTS cell survival assay, RWPE1; assay type: cell-based; details: Homo sapiens, RWPE-1, RWPE1 normal cells, 72 hours
# Protocol: as §2
# [5] = test system: prostate cancer cells PC3; test: MTS cell survival assay, PC3; assay type: cell-based
# Protocol: as §2
# [6] = Safety in nude mouse: weight and serum biochemical indicators; assay type: in vivo; details: 200 mg/kg/day intragastrically, 4 weeks
# Protocol: Intragastrically administering the compound M3 of the present invention (200 mg/kg/day) in an immunodeficient nude mouse once a day, 5 days a week with 2 days rest in between, for a total of 4 weeks of continuous treatment; using solvent DMSO as a control. Weight of the nude mouse is measured before treatment and every 3 days after the treatment begins. When the experiment ends, extract blood from the nude mouse, separate blood serum, and detect the changes in biochemical indicators, including: aspartate aminotransferase (AST) and alanine aminotransferase (ALT) indicative of liver function, blood urea nitrogen (BUN) and creatinine (CREA) indicative of kidney function, and creatine kinase (CK) and l lactate dehydrogenase (LDH-L) indicative of heart function, to evaluate the effect of […] on heart, liver and kidney functions.
# HPrEC cells = test: MTS cell survival assay, HPrEC; assay type: cell-based; details: HPrEC normal cells, 72 hours
# Protocol: as §2
# T1 sequence (Q13547 whole entry): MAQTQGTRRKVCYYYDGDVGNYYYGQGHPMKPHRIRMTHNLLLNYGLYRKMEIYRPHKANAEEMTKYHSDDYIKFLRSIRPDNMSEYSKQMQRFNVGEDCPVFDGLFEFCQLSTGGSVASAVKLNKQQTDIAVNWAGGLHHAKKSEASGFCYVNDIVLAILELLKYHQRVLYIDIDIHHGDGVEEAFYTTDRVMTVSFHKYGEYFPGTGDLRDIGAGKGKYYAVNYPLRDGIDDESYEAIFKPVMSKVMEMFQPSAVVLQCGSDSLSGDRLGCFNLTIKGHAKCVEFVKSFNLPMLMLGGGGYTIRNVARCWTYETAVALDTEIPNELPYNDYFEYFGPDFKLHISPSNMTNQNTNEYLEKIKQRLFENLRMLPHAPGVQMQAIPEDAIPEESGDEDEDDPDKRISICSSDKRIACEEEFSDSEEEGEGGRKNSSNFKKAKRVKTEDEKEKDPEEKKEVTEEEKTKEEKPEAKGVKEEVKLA
smiles,measurement,setting,value
"O=C(CCCCCCC(=O)Nc1c[nH]c(=O)[nH]c1=O)NO [M3, N1-(carbonyl-5-aminouracil)-N8-octylhydroxyamide]",acetylation level of histone H3,HDAC1 [1],causes an increase in acetylation level of histone H3
same,total histone H3 level,HDAC1 [1],not affected
same,activity of HDAC1 (acetylated histone H3),HDAC1 [2],significantly inhibits the activity of HDAC1
same,protein expression of DNMT1,DNMT1,significantly reduced
same,IC50,[3],< 50 µM
same,protein level of UHRF1,"UHRF1; DU145 cells, 50, 100 and 150 μM, 24 hours, Western blot (FIG. 1)",specifically reduces the protein level of the oncogene UHRF1 in prostate cancer cells in a dose-dependent manner
same,protein level of UHRF1 target,"UHRF1; FIG. 6, M2 and M3 under the same dose",significantly reduces the protein stability of UHRF1
same,tumor growth,[4],significantly reduces tumor growth compared with the control compound M1
same,IC50,RWPE1 cells,> 300 µM
same,IC50,"[5]; PC3, 72 hours, MTS, read-out: half inhibitory dose (IC50)",< 50 µM
same,selectivity for killing prostate cancer cells,[5]; PC3 and DU145 compared with RWPE1 and HPrEC,good selectivity for killing prostate cancer cells
same,weight of the nude mouse,[6],does not significantly reduce the weight
same,"heart function (CK, LDH-L)",[6]; blood serum,no significant effect
same,"kidney function (BUN, CREA)",[6]; blood serum,no significant effect
same,"liver function (AST, ALT)",[6]; blood serum,no significant effect
same,IC50,HPrEC cells,> 300 µM
